Results taken from patent EP0359454B1, “CC-1065 analogs having two CPI subunits” (PHARMACIA & UPJOHN COMPANY, priority 1988, dated 1990).
In brackets after ≈: the same amount, converted by molar mass.

Legend:
L1210 leukemia cells = assay: In vitro L1210 cell growth inhibition; format: cell-based, murine; conditions: Mus musculus, concentration of drug which inhibits cell growth 50%, read-out: ID50 (the source's name)
Text: (§1) Table 3 presents data comparing [S-(R*,R*)]-6,6′-[carbonylbis(imino-1H-indole-5,2-dicarbonyl)]bis[8-chloromethyl)-3,6,7,8-tetrahydro-1-methyl-benzo[1,2-b:4,3-b′]dipyrrol-4-ol (Compound 1) with (7bR)-N-[2-[(4,5,8,8a-tetrahydro-7-methyl-4-oxocyclopropa-[C]pyrrolo[3,2-e]indol-2(1H)0yl)carbonyl]-1H-indol-5-yl]-2-benzofurancarboxamide (U-73,975) in the other murine systems where the compounds have been run jointly.

L-1210 Leukemia = assay: L-1210 leukemia in vivo, IV drug vs IP tumor, dosed on day 1; parameters: species or system Male BDF1 mice; conditions: IV drug vs IP tumor, dosed on day 1; for Best T/C: T/C = median survival treated/control x 100, each value at the dose (1-600 µg/kg); for cures: animals surviving 30 days are considered cured, at the dose (µg/kg)
Text: as §1
The results set forth in Tables 1 and 4 were obtained using standard well known procedures (In Vivo Cancer, Models, NIH Publication No. 84-2635, 1984).
T/C refers to median life span of treated mice divided by median life span of control mice times 100.

## Cc1c[nH]c2c1C13CC1CN(C(=O)c1cc4cc(NC(=O)Nc5ccc6[nH]c(C(=O)N7CC8CC89C7=CC(=O)c7[nH]cc(C)c79)cc6c5)ccc4[nH]1)C3=CC2=O (stereo not drawn) [Compound 2, [7bR-[2(7′bR*,8′aS*), 7bR*,8aS*]]-2,2′-[carbonylbis(imino-1H-indole-5,2-dicarbonyl)]bis[1,2,8,8a-tetrahydro-7-methyl-cyclopropa(c)pyrrolo[3,2-e]indol-4(5H)-one]
L1210 leukemia cells
  IC50: 0.001 ng/mL (≈ 0.00135 nM)
L-1210 Leukemia
  Best T/C: 169

## Cc1c[nH]c2c(O)cc3c(c12)[C@H](CCl)CN3C(=O)c1cc2cc(NC(=O)C(=O)Nc3ccc4[nH]c(C(=O)N5C[C@H](CCl)c6c5cc(O)c5[nH]cc(C)c65)cc4c3)ccc2[nH]1 [Compound 3, (R*,S*)-N,N′-bis[2-[[1-(chloromethyl)-1,6-dihydro-5-hydroxy-8-methylbenzo[1,2-b:4,3-b′]dipyrrol-3(2H)-yl]carbonyl]-1H-indol-5-yl]-ethanediamide]
L1210 leukemia cells
  IC50: 0.009 ng/mL (≈ 0.0107 nM)
L-1210 Leukemia
  Best T/C: 106

## Cc1c[nH]c2c(O)cc3c(c12)[C@H](CCl)CN3C(=O)c1ccc(C(=O)N2C[C@@H](CCl)c3c2cc(O)c2[nH]cc(C)c32)[nH]1 [Compound 4, [S-(R*,R*)]-6,6′-(1H-pyrrole-2,5-diyldicarbonyl)bis[8-(chloromethyl)-3,6,7,8-tertrahydro-1-methyl-benzo[1,2-b:4,3-b′-]dipyrrol-4-ol]
L1210 leukemia cells
  IC50: 0.004 ng/mL (≈ 0.00675 nM)
L-1210 Leukemia
  Best T/C: 156

## Cc1c[nH]c2c(O)cc3c(c12)[C@H](CCl)CN3C(=O)c1ccc(C(=O)N2C[C@@H](CCl)c3c2cc(O)c2[nH]cc(C)c32)o1 [Compound 5, [S-(R*,R*)]-6,6′-(2,5-furandiyldicarbonyl)bis[8-(chloromethyl)-3,6,7,8-tertrahydro-1-methyl-benzo[1,2-b:4,3′b′]dipyrrol-4-ol]
L1210 leukemia cells
  IC50: 0.01 ng/mL (≈ 0.0169 nM)
L-1210 Leukemia
  Best T/C: 156

## Cc1c[nH]c2c(O)cc3c(c12)[C@H](CCl)CN3C(=O)c1cc2cc(NC(=O)c3ccc(C(=O)Nc4ccc5[nH]c(C(=O)N6C[C@@H](CCl)c7c6cc(O)c6[nH]cc(C)c76)cc5c4)o3)ccc2[nH]1 [Compound 6, [S-(R*,R*]-N,N′-bis[2-[[1-(chloromethyl)-1,6-dihydro-5-hydroxy-8-methylbenzo[1,2-b:4,3-b′]dipyrrol-3(2H)-yl]carbonyl]-1H-indol-5-yl]-2,5-furandicarboxamide]
L1210 leukemia cells
  IC50: 0.012 ng/mL (≈ 0.0132 nM)
L-1210 Leukemia
  Best T/C: 178
  cures: 1

## Cc1c[nH]c2c(O)cc3c(c12)[C@H](CCl)CN3C(=O)c1cc2cc(NC(=O)c3ccc(C(=O)Nc4ccc5[nH]c(C(=O)N6C[C@@H](CCl)c7c6cc(O)c6[nH]cc(C)c76)cc5c4)[nH]3)ccc2[nH]1 [Compound 7, [S-(R*,R*)]-N,N′-bis[2[[1-(chloromethyl)-1,6-dihydro-5-hydroxy-8-methylbenzo[1,2-b:4,3-b′]dipyrrol-3(2H)-yl]carbonyl]-1H-indol-5-yl]-1H-pyrrole-2,5-dicarboxamide]
L1210 leukemia cells
  IC50: 0.004 ng/mL (≈ 0.0044 nM)
L-1210 Leukemia
  Best T/C: 156

## Cc1c[nH]c2c(O)cc3c(c12)[C@H](CCl)CN3C(=O)c1cc2cc(NC(=O)CC(=O)Nc3ccc4[nH]c(C(=O)N5C[C@@H](CCl)c6c5cc(O)c5[nH]cc(C)c65)cc4c3)ccc2[nH]1 [Compound 8, [R-(R*,S*)]-N,N′-bis[2[[1-(chloromethyl)-1,6-dihydro-5-hydroxy-8-methylbenzo[1,2-b:4,3-b′]dipyrrol-3(2H)-yl]carbonyl]-1H-indol-5-yl]-propanediamide]
L1210 leukemia cells
  IC50: 0.006 ng/mL (≈ 0.007 nM)
L-1210 Leukemia
  Best T/C: 194

## CC(=O)Oc1cc2c(c3c(C)c[nH]c13)[C@H](CCl)CN2C(=O)c1cc2cc(NC(=O)Nc3ccc4[nH]c(C(=O)N5C[C@@H](CCl)c6c5cc(OC(C)=O)c5[nH]cc(C)c65)cc4c3)ccc2[nH]1 [Compound 9, [S-(R*,R*)]-6,6′-[carbonylbis(imino-1H-indole-5,2-diylcarbonyl)bis[8-(chloromethyl)-3,6,7,8-tetrahydro-1-methyl-benzo[1,2-b:4,3-b′]dipyrrol-4-ol diacetate]
L-1210 Leukemia
  Best T/C: 165

## Cc1c[nH]c2c(O)cc3c(c12)[C@H](CCl)CN3C(=O)c1ccc2[nH]c(C(=O)N3C[C@@H](CCl)c4c3cc(O)c3[nH]cc(C)c43)cc2c1 [Compound 10, [S-(R*,R*)]-6,6′-(1H-indole-2,5-diyldicarbonyl)bis[8-(chloromethyl)-3,6,7,8-tetrahydro-1-methyl-benzo[1,2-b:4,3-b′]dipyrrol-4-ol]
L-1210 Leukemia
  Best T/C: 213
  cures: 1

## Cc1c[nH]c2c(O)cc3c(c12)[C@H](CCl)CN3C(=O)c1cc2cc(NC(=O)c3ccc4[nH]c(C(=O)Nc5ccc6[nH]c(C(=O)N7C[C@@H](CCl)c8c7cc(O)c7[nH]cc(C)c87)cc6c5)cc4c3)ccc2[nH]1 [Compound 11, [S-(R*,R*)]-N,N′-bis[2-[[1-(chloromethyl)-1,6-dihydro-5-hydroxy-8-methylbenzo[1,2-b:4,3-b′]dipyrrol-3(2H)-yl]carbonyl]-1H-indol-5-yl]-1H-indole-2,5-dicarboxamide]
L-1210 Leukemia
  Best T/C: 188

## Cc1c[nH]c2c(O)cc3c(c12)[C@H](CCl)CN3C(=O)c1cc2cc(NC(=O)c3ccc4[nH]c(C(=O)N5C[C@@H](CCl)c6c5cc(O)c5[nH]cc(C)c65)cc4c3)ccc2[nH]1 [Compound 12, [S-(R*,R*)]-2-[[1-(chloromethyl)-1,6-dihydro-5-hydroxy-8-methylbenzo[1,2-b:4,3-b′]dipyrrol-3(2H)-yl]carbonyl]-N-[3-[[1-(chloromethyl)-1,6-dihydro-5-hydroxy-8-methylbenzo[1,2-b:4,3-b′]dipyrrol-3(2H)-yl]carbonyl]-1H-indol-6-yl]-1H-indole-5-carboxamide]
L-1210 Leukemia
  Best T/C: 181

## Cc1c[nH]c2c(O)cc3c(c12)[C@H](CCl)CN3C(=O)c1ccc2[nH]c(C(=O)Nc3ccc4[nH]c(C(=O)N5C[C@@H](CCl)c6c5cc(O)c5[nH]cc(C)c65)cc4c3)cc2c1 [Compound 13, [S-(R*,R*)]-5-[[1-(chloromethyl)-1,6-dihydro-5-hydroxy-8-methylbenzo[1,2-b:4,3-b′]dipyrrol-3(2H)-yl]-carbonyl)-N-[2-[[1-(chloromethyl)-1,6-dihydro-5-hydroxy-8-methylbenzo[1,2-b:4,3-b′]dipyrrol-3(2H)-yl]carbonyl)-1H-indol-5-yl]-1H-indole-2-carboxamide]
L-1210 Leukemia
  Best T/C: 188

## Cc1c[nH]c2c(OC(=O)C(C)(C)C)cc3c(c12)[C@H](CCl)CN3C(=O)c1cc2cc(NC(=O)Nc3ccc4[nH]c(C(=O)N5C[C@@H](CCl)c6c5cc(OC(=O)C(C)(C)C)c5[nH]cc(C)c65)cc4c3)ccc2[nH]1 [Compound 14, [S-(R*,R*)]-carbonylbis[imino-1H-indole-5,2-diylcarbonyl[1-(chloromethyl)-1,6-dihydro-8-methylbenzo[1,2-b:4,3-b′]dipyrrole-3,5(2H)-diyl]]ester, 2,2-dimethylpropanoic acid]
L-1210 Leukemia
  Best T/C: 156

## CCCCCCCCCC(=O)Oc1cc2c(c3c(C)c[nH]c13)[C@H](CCl)CN2C(=O)c1cc2cc(NC(=O)Nc3ccc4[nH]c(C(=O)N5C[C@@H](CCl)c6c5cc(OC(=O)CCCCCCCCC)c5[nH]cc(C)c65)cc4c3)ccc2[nH]1 [Compound 15, [S-(R*,R*)]-carbonylbis[imino-1H-indole-5,2-diylcarbonyl[1-(chloromethyl)-1,6-dihydro-8-methylbenzo[1,2-b:4,3-b′]dipyrrole-3,5(2H)-diyl]]ester, decanoic acid]
L1210 leukemia cells
  IC50: 0.001 ng/mL (≈ 0.00089 nM)
L-1210 Leukemia
  Best T/C: 243
  cures: 1

## Cc1c[nH]c2c(O)cc3c(c12)[C@H](CCl)CN3C(=O)c1cc2c3c(ccc2[nH]1)N(C(=O)N1CCc2c1ccc1[nH]c(C(=O)N4C[C@@H](CCl)c5c4cc(O)c4[nH]cc(C)c54)cc21)CC3 [Compound 16, [S-(R*,R*)]-6,6′-[carbonylbis[(7,8-dihydrobenzo[1,2-b:4,3-b′]dipyrrole-6,2(3H)-diyl)carbonyl]]bis[8-chloromethyl)-3,6,7,8-tetrahydro-1-methyl-benzo[1,2-b:4,3b′]dipyrrol-4-ol]
L1210 leukemia cells
  IC50: 0.002 ng/mL (≈ 0.0023 nM)
L-1210 Leukemia
  Best T/C: 243
  cures: 1/6
